“Also recorded” adds a separate entry of the source.
What was measured:
[1] = system: iNKT cells; settings: cited from earlier work
[2] = system: iNKT cells; experiment: AHR (lung resistance to methacholine) after nebulized α-GalCer challenge, cross-over design; type: in vivo, cynomolgus monkeys
Text: (§1) Four monkeys were challenged with α-GalCer or vehicle using a cross-over design (approved by animal care and use committees at the Children's Hospital Boston and the Charles River Laboratory), which minimized the effects of genetic variation and the differing past histories in each of the outbred monkeys. […] Each adult cynomolgus monkey was anesthetized, intubated and challenged with nebulized α-GalCer or vehicle. For safety reasons and to avoid any possible toxic effects of α-GalCer that might cause AHR, a dose escalation approach was used, starting with a very low dose of α-GalCer (150 μg/m^2), similar to the lowest doses used intravenously in Phase I safety studies in humans with solid tumors. Only one dose of α-GalCer was administered to the monkeys before evaluation of AHR, because following activation with α-GalCer, iNKT cells become anergic temporarily (53). 24 hours after challenge, the monkeys were reintubated and assessed for AHR by measuring lung resistance (RL) in response to increasing concentrations of methacholine.

[3] = system: iNKT cells; experiment: BAL fluid secondary outcomes after α-GalCer challenge; type: in vivo, cynomolgus monkeys; settings: monkeys, after α-GalCer vs vehicle
Text: as §1

CCCCCCCCCCCCCCCCCCCCCCCCCC(=O)N[C@@H](CO[C@H]1O[C@H](CO)[C@H](O)[C@H](O)[C@H]1O)[C@H](O)[C@H](O)CCCCCCCCCCCCCC [α-GalCer, α-GalactosylCeramide]
induction of AHR in wildtype / naïve mice ([1]; administered into the lungs / intranasally): causes AHR; also recorded: results in the development of AHR
induction of AHR / effects in iNKT (NKT) cell deficient mice ([1]; administered into the lungs): no effects
induction of AHR in class II−/− mice (lack conventional CD4+ T cells) ([1]; without allergen administration): functioned to induce AHR
percentage change in lung resistance (RL) from baseline compared to vehicle control ([2]; combined data of four monkeys, highest dose of methacholine, paired T test p=0.0003): significantly higher
AHR compared to challenge with vehicle control, monkeys responding ([2]; first very low inhaled dose 150 μg/m^2, 24 h after challenge, four monkeys): three of the four monkeys developed significantly increased AHR
AHR response of monkey B (non-responder to first dose) ([2]; higher dose 600 μg/m^2, 24 h after challenge): developed a significant AHR response
induction of airway hyperreactivity (AHR) ([2]; monkeys, α-GalCer challenge in the absence of ozone or allergen): induced AHR; also recorded: resulted in the development of significant AHR; also recorded: induces airway hyperreactivity
increased IL-4 in the BAL fluid (secondary outcome) [3]: did not reach statistical significance
increased eosinophils in the BAL fluid (secondary outcome) [3]: did not reach statistical significance
increased iNKT cells in the BAL fluid (secondary outcome) [3]: did not reach statistical significance
increased neutrophils in the BAL fluid (secondary outcome) [3]: did not reach statistical significance

Source: patent US20110300154A1, “TREATMENT OF AIRWAY HYPERREACTIVITY” (CHILDREN'S MEDICAL CENTER CORPORATION, priority 2007, published 2011)
